{"source": "patent US7135465B2", "about": "“Sustained release beadlets containing stavudine” (Bristol-Myers Squibb Company, priority 2000, dated 2006)", "experiment": "Gamma scintigraphy studies of stavudine absorption", "format": "in vivo", "experimental": "It has been found in gamma scintigraphy studies that stavudine is well absorbed in the upper intestine. The absorption in the colon is approximately one half that of the small intestine. The optimal formulation would be designed to release approximately 40% of the stavudine in four hours and the remainder over the next twelve to twenty hours. A 100 mg. extended dosage form of stavudine, therefore, would be designed to have the same bioavailability as the commercial 40 mg. immediate release capsules given twice daily. […] A problem in the formulation of a suitable extended dosage form of stavudine is its sensitivity to moisture that causes it to hydrolyze, primarily into thymine. This moisture sensitivity has not been a problem with the commercial non-sustained release dosage form of stavudine because it is a dry granulation that is filled into hard gelatin capsules. However, sustained release dosage forms conventionally require different compounding procedures typically including a granulation step involving an aqueous medium. […] In accordance with the present invention, a method has been found whereby stavudine can be successfully compounded into an extended release formulation utilizing conventional techniques without appreciable loss of potency due to hydrolysis.", "data": [{"smiles": "Cc1cn([C@H]2C=C[C@@H](CO)O2)c(=O)[nH]c1=O", "note": "[stavudine, 3′-deoxy-2′,3′-didehydrothymidine]", "values": [{"measurement": "absorption in the colon relative to that of the small intestine", "result": "approximately one half"}, {"measurement": "absorption in the upper intestine", "result": "well absorbed"}]}]}
